The source of these data is PMC10666548, “Identification of the bacterial metabolite aerugine as potential trigger of human dopaminergic neurodegeneration” (Environment international, 2023).

The subject of one data set is HeLa. The data set can be described thus: Cell line viability, resazurin reduction, 72 h. It is filed as cell-based, human. The following applies: at <100 μM. The procedure: (§1) Hek293FT were acquired from ThermoFisher Scientific (cat. no. R70007). HepG2 were acquired from ATCC (HB-8065). HeLa were acquired from ATCC (CCL-2). The cell culture was performed as described previously ([Dolde et al., 2021]). Briefly, the cell lines were kept in DMEM Glutamax with 10% FCS and 1% penicillin/streptomycin at 37 °C with 5% CO2. They were grown in normal cell culture flasks (Sarstedt) to 75–90% confluence and seeded into standard 96-well plates 24 h prior to compound treatment. The cells were treated by performing a medium change to Advanced DMEM/F12 supplemented with 2 mM L-glutamine containing the indicated compound concentrations.
(§2) The assay was performed as described previously ([Schildknecht et al., 2009]). In brief, cells were stained with 10 μg/ml resazurin and incubated for 30 min at 37 °C and 5% CO2. The fluorescence of resazurin was detected with an excitation wavelength of 530 nm, using a 590 nm long-pass filter to record the emission.
(§3) Fig. 3. Cell type specificity of aerugine cytotoxicity. A Cultures of LUHMES neurons were used on d0 (proliferating, blue), d2 (immature, black) or d6 (mature, red) of differentiation for cytotoxicity testing. Cells were exposed to nine serial dilutions of synthetic aerugine. The cell viability was assessed 24 h later by calcein-AM & H-33342 staining and high content imaging. […] Dotted lines at 4 μM indicate the average EC50 for mature LUHMES. […] They were treated for 72 h with synthetic aerugine. The overall cell viability was assessed by measuring resazurin reduction in technical triplicates. Data are presented as means ± range of two biological replicates (different experiments). C Three iPSC-derived neuronal cell types were treated for 24 h with synthetic aerugine. The cell viability was assessed 24 h later by calcein-AM & H-33342 staining and high content imaging. Data are presented as means ± SEM of three biological replicates (different experiments). D Lack of cytotoxic or bacteriostatic effects of aerugine (20 μM) on exemplary gram-positive and gram-negative microbes: The growth characteristics of Enterococcus faecalis (gram-positive) and Neisseria gonorrhoeae MS11 (gram-negative) were followed during the log growth phase in their respective culture media. Data are from one biological replicate.
Background: Resazurin is reduced to fluorescent resorufin, in cell work by metabolically active cells.

In another data set the test system is Hek293FT. Description: Cell line viability, resazurin reduction, 72 h. To be noted: at <100 μM. Format: cell-based, human. The procedure: as §1, §2, §3
In a further data set the test system is HepG2. The data set can be described thus: Cell line viability, resazurin reduction, 72 h. Format: cell-based, human. The following applies: HepG2, 72 h, at <100 μM. The procedure:
as §1, §2, §3

Data set [1] has as its system Neisseria gonorrhoeae MS11. Description: Bacterial growth assay. It is filed as cell-based. To be noted: 20 μM, log growth phase. The procedure: Neisseria gonorrhoeae MS11 was cultured in PPM medium (15 g/l Proteose Pepton, 1 g/l soluble starch, 5 g/l NaCl, 4 g/l KH2PO4, 1 g/l K2HPO4, pH 7.5) for liquid culture and on GC plates (BD Difco™ GC Medium Base), both supplemented with 1 % vitamin mix (100 g/l glucose, 10 g/l glutamine, 26 g/l L-cysteine, 100 mg/l carboxylase, 250 mg/l NAD, 500 μl/l Fe(NO3)3, 150 mg/l arginine, 3 mg/l thiamine-HCl, 10 mg/l vitamine B12, 13 mg/l p-amino benzoic acid, 1.1 g/l L-cystine, 1 g/l adenine, 500 mg/l uracil, 30 mg/l guanine). Strains were either cultivated at 37 °C and 220 rpm (liquid medium) or at 37 °C and 5 % CO2 (solid medium).
Bacteria were grown as described above on solid medium. Prior to substance exposure, bacteria were pre-cultured in liquid medium for at least 2 h. Optical density was determined and a volume equal to an OD550 of 0.2 for Neisseria gonorrhoeae MS11 (equates a final OD550 of 0.04) and an OD600 of 0.2 for Enterococcus faecalis (equates a final OD600 of 0.04) was inoculated into 5 ml of the respective liquid medium. Compound was added at the indicated amounts. […] Samples were incubated for either 10.5 h, until they reached a stationary phase (three measured values in stationary phase) or until they reached an OD of 2.5. Optical density was determined every 0.5 h at OD550 for Neisseria gonorrhoeae MS11 and at OD600 for Enterococcus faecalis. […]

Regarding `OCC1CSC(c2ccccc2O)=N1` (stereo not shown) [aerugine, 2-[4-(hydroxymethyl)-4,5-dihydro-1,3-thiazol-2-yl]phenol], the “toxicity (overall cell viability, resazurin reduction)” value is given as “no toxicity was observed” in the data set on HeLa; “non-toxic” in the data set with HeLa (listed as Aerugine); “no toxicity was observed” in the data set with Hek293FT; “non-toxic” in the data set on Hek293FT (listed as Aerugine); “no toxicity was observed” with HepG2; “non-toxic” in the data set on HepG2 (listed as Aerugine). For the same molecule, the viability or growth result in data set [1] is “not affected in viability or growth”.
